{"source": "patent US5756121A", "about": "“Antibiotic formulation and use for drug resistant infections” (NeXstar Pharmaceuticals, Inc., priority 1995, dated 1998)", "key": {"[1]": {"experiment": "in vivo", "parameters": "species or system mouse (C57B1/6)", "conditions": "mouse", "protocol": "Amikacin content was measured in mouse (C57B1/6, females 2-3 months old) plasma after injection (i.v.) of free amikacin or liposomal amikacin (100 mg/kg). Liposomal amikacin was prepared as described in Example 2. Blood samples were obtained at various time intervals. The samples were collected by removing 100 microliters of blood, retroorbitally, from nonanesthetized mice. The samples were collected in heparinized capillary pipets which were plugged with modeling clay. The samples were centrifuged at 3250 rpm (20 cm rotor) for 10 minutes. The samples were analyzed using a radioimmunoassay (Diagnostic Products). The liposomal amikacin formulation contained liposomes with an average size of 43.6 nm (median diameter). The amikacin concentration was 10.09 mg/ml and the total lipid concentration was 56.8 mg/ml (drug to lipid ratio […])."}, "[2]": {"test_system": "M. tuberculosis, drug susceptible strain H37RV", "experiment": "Activity against drug susceptible TB in infected human monocyte-derived macrophages", "format": "cell-based, Mycobacterium tuberculosis (in human macrophages)", "conditions": "for CFU: duplicate values"}, "[3]": {"test_system": "MAC (101, type 1)", "experiment": "Treatment of MAC-infected beige mice, first experiment (organism burden in spleen, liver, lung)", "format": "in vivo", "protocol": "The testing of liposome encapsulated amikacin for the treatment of MAC was performed using a murine model. Beige mice (C57B1/6bg^j /bg^j) were infected with MAC (101, type 1). The mice were infected by injection of 1×10^7 Colony Forming Units (cfu) in the mouse tail vein (i.v.). Three experiments were performed. In the first experiment, 40, 80 and 120 milligrams of amikacin (liposomal and free) per kilogram of mouse body-weight was given i.v. daily for 5 days, beginning 7 days after infection. The animals were sacrificed 5 days after treatment was completed and the liver, lung and spleen tissue were plated. Quantitation of organisms in liver, spleen and lung tissue was performed. The cfu were determined by growth on Middlebrook 7h11 agar plates. Untreated and empty liposomes were used as controls.\nThe liposomes were prepared as in Example 1. This experiment was performed in two identical parts. The liposomes in the first part were of an average size of 49.8 nm and the average size of the liposomes in the second part were 73.7 nm (mean diameter). The amikacin concentration was either 15.0 mg/ml or 13.21 mg/ml and the total lipid concentration was either 121 mg/ml or 55.7 mg/ml respectively (drug to lipid ratios: 0.123, 0.24). Free drug for all experiments was prepared in the same buffer that the liposomal formulations were contained in."}, "[4]": {"test_system": "Pseudomonas aeruginosa", "experiment": "Efficacy and toxicity in Pseudomonas infected mice (mortality)", "format": "in vivo, Pseudomonas aeruginosa (clinical isolate) in CF-1 mice", "protocol": "The efficacy and toxicity of liposomal amikacin in Pseudomonas infected mice was tested. CF-1 mice were used (females, 6-8 weeks old). The mice were obtained from Jackson Labs. A clinical isolate of Pseudomonas aeruginosa was obtained on a Mueller Hinton/MacConkey blood agar plate. The organisms were transferred to a Mueller Hinton plate and grown for 24 hours. Colonies were transferred to saline and grown for 48 hours. The samples were frozen in saline containing 15% fetal calf serum at 1×10^8 organisms/ml (MacFarland Standard). The colonies were stored at -70° C. The colonies were thawed and grown in a Mueller Hinton plate for 24 hours. The bacteria were adjusted to 8×10^6 organisms/ml in saline containing talc (62.5 mg/ml) and 1 ml was injected intraperitoneal. A culture of inoculum on MH agar for 24 hours determined that approximately 7×10^6 cfu were delivered per mouse. Liposomal amikacin and empty liposomes were prepared as set out in Example 2. […] The lipid concentration was 95.31 mg/ml and the amikacin concentration was 23.54 mg/ml (0.25 drug/lipid ratio). The pH of the solution containing the formulation was 7.31. […] The concentration of the free amikacin solution was 23.54 mg/ml. The pH of the solution containing the liposomes was 7.33.\nMice were treated with 40 mg/kg (drug per body-weight), 80 mg/kg, 120 mg/kg and 240 mg/kg of liposomal amikacin. Mice were also treated with 40 mg/kg, 80 mg/kg, and 120 mg/kg of free amikacin. The drugs were administered intravenously in the caudal vein. Two doses were given; one at four hours after infection and one at twenty-four hours after infection."}, "[5]": {"conditions": "mice, 150 mg/kg; known in the art; cited from earlier work"}}, "note": "Values joined by “and” are separate entries in the source; they are usually repeats but may differ in a detail not shown here. Identical values can stand only once."}
{"smiles": "NCC[C@H](O)C(=O)N[C@@H]1C[C@H](N)[C@@H](O[C@H]2O[C@H](CN)[C@@H](O)[C@H](O)[C@H]2O)[C@H](O)[C@H]1O[C@H]1O[C@H](CO)[C@@H](O)[C@H](N)[C@H]1O", "note": "[amikacin]", "values": [{"measurement": "Average plasma concentration of amikacin", "setting": "[1]; 100 mg/kg i.v., 6 hours", "value": "none detected"}, {"measurement": "concentration at 5 min", "setting": "[1]; in vivo, iv, 100 mg/kg", "value": 406, "unit": "µg/mL"}, {"measurement": "concentration at 0.25 h", "setting": "[1]; in vivo, iv, 100 mg/kg", "value": 106, "unit": "µg/mL"}, {"measurement": "concentration at 2 h", "setting": "[1]; in vivo, iv, 100 mg/kg", "value": 65, "unit": "µg/mL"}, {"measurement": "inhibition / killing of drug susceptible bacteria (in words)", "setting": "[2]; 1 μg/ml", "value": "inhibited the growth of the bacteria"}, {"measurement": "CFU", "setting": "[2]; 1 μg/ml, day 4", "value": "50 1 × 10^3 cfu per monolayer and 60 1 × 10^3 cfu per monolayer"}, {"measurement": "CFU", "setting": "[2]; 1 μg/ml, day 7", "value": "900 1 × 10^3 cfu per monolayer and 800 1 × 10^3 cfu per monolayer"}, {"measurement": "inhibition / killing of drug susceptible bacteria (in words)", "setting": "[2]; 2 μg/ml, day 4", "value": "inhibition"}, {"measurement": "CFU", "setting": "[2]; 2 μg/ml, day 4", "value": "20 1 × 10^3 cfu per monolayer"}, {"measurement": "CFU", "setting": "[2]; 2 μg/ml, day 7", "value": "40 1 × 10^3 cfu per monolayer and 50 1 × 10^3 cfu per monolayer"}, {"measurement": "inhibition / killing of drug susceptible bacteria (in words)", "setting": "[2]; 4 μg/ml, day 4", "value": "killing at day 4"}, {"measurement": "CFU", "setting": "[2]; 4 μg/ml, day 4", "value": "4 1 × 10^3 cfu per monolayer and 5 1 × 10^3 cfu per monolayer"}, {"measurement": "CFU", "setting": "[2]; 4 μg/ml, day 7", "value": "1.5 1 × 10^3 cfu per monolayer and 3 1 × 10^3 cfu per monolayer"}, {"measurement": "Lung log cfu/gram", "setting": "[3]; 40 mg/kg i.v. daily for 5 days", "value": 6.16, "unit": "log"}, {"measurement": "Lung log cfu/gram", "setting": "[3]; 80 mg/kg i.v. daily for 5 days", "value": 6.11, "unit": "log"}, {"measurement": "Lung log cfu/gram", "setting": "[3]; 120 mg/kg i.v. daily for 5 days", "value": 6.00, "unit": "log"}, {"measurement": "Mortality #died/#tested", "setting": "[4]; 40 mg/kg i.v., two doses (4 h and 24 h after infection), 24 hours post infection", "value": "1/4"}, {"measurement": "Mortality #died/#tested", "setting": "[4]; 40 mg/kg i.v., two doses, 30 hours post infection", "value": "1/4"}, {"measurement": "Mortality #died/#tested", "setting": "[4]; 40 mg/kg i.v., two doses, 48 hours post infection", "value": "1/4"}, {"measurement": "Mortality #died/#tested", "setting": "[4]; 40 mg/kg i.v., two doses, 72 hours post infection", "value": "1/4"}, {"measurement": "Mortality #died/#tested", "setting": "[4]; 80 mg/kg i.v., two doses (4 h and 24 h after infection), 24 hours post infection", "value": "0/6"}, {"measurement": "Mortality #died/#tested", "setting": "[4]; 80 mg/kg i.v., two doses, 30 hours post infection", "value": "0/6"}, {"measurement": "Mortality #died/#tested", "setting": "[4]; 80 mg/kg i.v., two doses, 48 hours post infection", "value": "0/6"}, {"measurement": "Mortality #died/#tested", "setting": "[4]; 80 mg/kg i.v., two doses, 72 hours post infection", "value": "0/6"}, {"measurement": "Mortality #died/#tested", "setting": "[4]; 120 mg/kg i.v., two doses (4 h and 24 h after infection), 24 hours post infection", "value": "0/6"}, {"measurement": "Mortality #died/#tested", "setting": "[4]; 120 mg/kg i.v., two doses, 30 hours post infection", "value": "0/6"}, {"measurement": "Mortality #died/#tested", "setting": "[4]; 120 mg/kg i.v., two doses, 48 hours post infection", "value": "0/6"}, {"measurement": "Mortality #died/#tested", "setting": "[4]; 120 mg/kg i.v., two doses, 72 hours post infection", "value": "0/6"}, {"measurement": "lethality (in words)", "setting": "[5]", "value": "will kill many of the mice injected"}]}
